Laboratory results taken from patent publication US20130261077A1 (priority 2012, published 2013).

Molecular target: T1, FimH-CRD (Escherichia coli, UniProt P08191)
T1 construct: The first 177 amino acids of the FimH protein; thrombin tag (printed as 'fusion protein with thrombin') (cleaved yes); made in house; host or cells: bacteria (pET21b plasmid)
Test: Competitive binding assay by fluorescence polarization, assay 2 (compounds prepared by robotics, plates frozen and thawed)
In short: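 Fluorescence-polarization competition of 5 nM Alexa 647 mannoside probe with 60 nM FimH-CRD (first 177 residues, tag removed) in Tris-Cl pH 7.0, NaCl, EDTA, β-ME, BSA, 2.5% DMSO, 5 h at RT in the dark. Twelve-point 3-fold titrations (0.4 nM–75 μM) in duplicate; Kd interpolated from displacement curves.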

T1 sequence (P08191 22-177): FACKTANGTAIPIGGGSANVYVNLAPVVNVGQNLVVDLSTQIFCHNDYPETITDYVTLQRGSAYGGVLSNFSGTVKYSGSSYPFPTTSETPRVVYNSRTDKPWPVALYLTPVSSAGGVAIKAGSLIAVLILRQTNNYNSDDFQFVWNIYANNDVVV

## COC(=O)c1ccc2nc(-c3cccc([C@H]4O[C@H](CO)[C@@H](O)[C@H](O)[C@@H]4O)c3)ccc2c1 [Compound 144, Methyl 2-[3-[(2R,3S,4R,5S,6R)-3,4,5-trihydroxy-6-(hydroxymethyl)tetrahydropyran-2-yl]phenyl]quinoline-6-carboxylate]
  Kd: 18.3 ± 7.5 nM

## CNC(=O)c1ccc2nc(-c3cccc([C@H]4O[C@H](CO)[C@@H](O)[C@H](O)[C@@H]4O)c3)ccc2c1 [Compound 145, N-Methyl 2-[3-[(2R,3S,4R,5S,6R)-3,4,5-trihydroxy-6-(hydroxymethyl)tetrahydropyran-2-yl]phenyl]quinoline-6-carboxylate]
  Kd: 22.4 ± 4.7 nM

## OCc1nc2cc(-c3cccc([C@H]4O[C@H](CO)[C@@H](O)[C@H](O)[C@@H]4O)c3)ccc2[nH]1 [Compound 146, (2R,3S,4R,5S,6R)-2-(Hydroxymethyl)-6-[3-[2-(hydroxymethyl)-1H-benzimidazol-5-yl]phenyl]tetrahydropyran-3,4,5-triol]
  Kd: 27.8 ± 10.8 nM

## OC[C@H]1O[C@H](c2cccc(-c3ccc4[nH]c(O)nc4c3)c2)[C@@H](O)[C@@H](O)[C@@H]1O [Compound 147, (2R,3S,4R,5S,6R)-2-[3-(2-Hydroxy-1H-benzimidazol-5-yl)phenyl]-6-(hydroxymethyl)tetrahydropyran-3,4,5-triol]
  Kd: 10.9 ± 4 nM

## OC[C@H]1O[C@H](c2cccc(-c3ccc4[nH]c(C(F)(F)F)nc4c3)c2)[C@@H](O)[C@@H](O)[C@@H]1O [Compound 148, (2R,3S,4R,5S,6R)-2-(Hydroxymethyl)-6-[3-[2-(trifluoromethyl)-1H-benzimidazol-5-yl]phenyl]tetrahydropyran-3,4,5-triol]
  Kd: 25.1 ± 12 nM

## CCCCn1cnc2ccc(-c3cccc([C@H]4O[C@H](CO)[C@@H](O)[C@H](O)[C@@H]4O)c3)cc21 [Compound 149, (2R,3S,4R,5S,6R)-2-[3-(3-Butylbenzimidazol-5-yl)phenyl]-6-(hydroxymethyl)tetrahydropyran-3,4,5-triol]
  Kd: 19.8 ± 11.2 nM

## Cc1nnc(-c2ccc(-c3cccc([C@H]4O[C@H](CO)[C@@H](O)[C@H](O)[C@@H]4O)c3)cc2F)o1 [Compound 150, (2R,3S,4R,5S,6R)-2-[3-[3-Fluoro-4-(5-methyl-1,3,4-oxadiazol-2-yl)phenyl]phenyl]-6-(hydroxymethyl)tetrahydropyran-3,4,5-triol]
  Kd: 25.9 ± 5.1 nM

## COC(=O)c1nc2cc(-c3cccc([C@H]4O[C@H](CO)[C@@H](O)[C@H](O)[C@@H]4O)c3)ccc2[nH]1 [Compound 151, Methyl 5-[3-[(2R,3S,4R,5S,6R)-3,4,5-trihydroxy-6-(hydroxymethyl)tetrahydropyran-2-yl]phenyl]-1H-benzimidazole-2-carboxylate]
  Kd: 37.8 ± 13.4 nM

## CNC(=O)Cn1cnc2cc(-c3cccc([C@H]4O[C@H](CO)[C@@H](O)[C@H](O)[C@@H]4O)c3)ccc21 [Compound 152, N-Methyl-2-[5-[3-[(2R,3S,4R,5S,6R)-3,4,5-trihydroxy-6-(hydroxymethyl)tetrahydropyran-2-yl]phenyl]benzimidazol-1-yl]acetamide]
  Kd: 43.8 ± 1.1 nM

## O=C(O)c1cc(C(=O)O)cc(-c2cccc([C@H]3O[C@H](CO)[C@@H](O)[C@H](O)[C@@H]3O)c2)c1 [Compound 153, 5-[3-[(2R,3S,4R,5S,6R)-3,4,5-trihydroxy-6-(hydroxymethyl)tetrahydropyran-2-yl]phenyl]benzene-1,3-dicarboxylic acid]
  Kd: 88.7 ± 41.2 nM

## CNC(=O)c1cccc(-c2ccc3cc([C@H]4O[C@H](CO)[C@@H](O)[C@H](O)[C@@H]4O)ccc3c2)c1 [Compound 154, N-methyl-3-[6-[(2R,3S,4R,5S,6R)-3,4,5-trihydroxy-6-(hydroxymethyl)tetrahydropyran-2-yl]-2-naphthyl]benzamide]
  Kd: 18.4 ± 6.9 nM

## OC[C@H]1O[C@H](c2ccc3cc(-c4cc(Cl)cc(Cl)c4)ccc3c2)[C@@H](O)[C@@H](O)[C@@H]1O [Compound 155, (2R,3S,4R,5S,6R)-2-[6-(3,5-dichlorophenyl)-2-naphthyl]-6-(hydroxymethyl)tetrahydropyran-3,4,5-triol]
  Kd: 71.7 ± 2 nM

## OC[C@H]1O[C@H](c2ccc3cc(O)ccc3c2)[C@@H](O)[C@@H](O)[C@@H]1O [Compound 156, (2R,3S,4R,5S,6R)-2-(hydroxymethyl)-6-(6-hydroxy-2-naphthyl)tetrahydropyran-3,4,5-triol]
  Kd: 16.5 ± 4.3 nM

## CNC(=O)c1cccc(Cc2cccc([C@H]3O[C@H](CO)[C@@H](O)[C@H](O)[C@@H]3O)c2)c1 [Compound 157, N-methyl-3-[[3-[(2R,3S,4R,5S,6R)-3,4,5-trihydroxy-6-(hydroxymethyl)tetrahydropyran-2-yl]phenyl]methyl]benzamide]
  Kd: 34.3 ± 8.1 nM

## CNC(=O)c1cccc(-c2ccc(-c3ccc([C@H]4O[C@H](CO)[C@@H](O)[C@H](O)[C@@H]4O)cc3)c(C)c2)c1 [Compound 158, N-methyl-3-[3-methyl-4-[4-[(2R,3S,4R,5S,6R)-3,4,5-trihydroxy-6-(hydroxymethyl)tetrahydropyran-2-yl]phenyl]phenyl]benzamide]
  Kd: 20.5 ± 4.3 nM

## CNC(=O)c1cccc(-c2ccc(-c3cccc([C@H]4O[C@H](CO)[C@@H](O)[C@H](O)[C@@H]4O)c3)c(C)c2)c1 [Compound 159, N,3′-dimethyl-3″-((2R,3S,4R,5S,6R)-3,4,5-trihydroxy-6-(hydroxymethyl)tetrahydro-2H-pyran-2-yl)-[1,1′:4′,1″-terphenyl]-3-carboxamide]
  Kd: 15.6 ± 3.4 nM

## Cc1nnc(-c2ccc3cc(-c4cccc([C@H]5O[C@H](CO)[C@@H](O)[C@H](O)[C@@H]5O)c4)ccc3c2)o1 [Compound 161, (2R,3S,4R,5S,6R)-2-(hydroxymethyl)-6-[3-[6-(5-methyl-1,3,4-oxadiazol-2-yl)-2-naphthyl]phenyl]tetrahydropyran-3,4,5-triol]
  Kd: 6.6 ± 1.2 nM

## OC[C@H]1O[C@H](c2cccc(-c3nc4c(Cl)cc(Cl)cc4[nH]3)c2)[C@@H](O)[C@@H](O)[C@@H]1O [Compound 162]
  Kd: 39.5 ± 11 nM

## OC[C@H]1O[C@H](c2cccc(-c3nc4ccccc4[nH]3)c2)[C@@H](O)[C@@H](O)[C@@H]1O [Compound 163]
  Kd: 82.1 ± 0.6 nM

## Cc1ccc2[nH]c(-c3cccc([C@H]4O[C@H](CO)[C@@H](O)[C@H](O)[C@@H]4O)c3)nc2c1 [Compound 164]
  Kd: 50.2 ± 14.1 nM

## OC[C@H]1O[C@H](c2cccc(-c3nc4c(F)cc(F)cc4[nH]3)c2)[C@@H](O)[C@@H](O)[C@@H]1O [Compound 165]
  Kd: 28.9 ± 11.7 nM

## OC[C@H]1O[C@H](c2cccc(-c3nc4cc(F)ccc4[nH]3)c2)[C@@H](O)[C@@H](O)[C@@H]1O [Compound 166]
  Kd: 44.1 ± 19.9 nM

## N#Cc1ccc2[nH]c(-c3cccc([C@H]4O[C@H](CO)[C@@H](O)[C@H](O)[C@@H]4O)c3)nc2c1 [Compound 167]
  Kd: 32.1 ± 4.3 nM

## O=C(c1ccccc1)c1ccc2[nH]c(-c3cccc([C@H]4O[C@H](CO)[C@@H](O)[C@H](O)[C@@H]4O)c3)nc2c1 [Compound 168]
  Kd: 42.5 ± 18.3 nM

## CS(=O)(=O)c1ccc2[nH]c(-c3cccc([C@H]4O[C@H](CO)[C@@H](O)[C@H](O)[C@@H]4O)c3)nc2c1 [Compound 169]
  Kd: 25.7 ± 0.4 nM

## OC[C@H]1O[C@H](c2cccc(-c3nc4cc(Cl)ccc4[nH]3)c2)[C@@H](O)[C@@H](O)[C@@H]1O [Compound 170]
  Kd: 32.4 ± 14.4 nM

## OC[C@H]1O[C@H](c2cccc(-c3nc4c(C(F)(F)F)cccc4[nH]3)c2)[C@@H](O)[C@@H](O)[C@@H]1O [Compound 171]
  Kd: 32.1 ± 19.1 nM
